Data as given in patent US20200128830A1, “FUSED BICYCLIC HETEROCYCLE DERIVATIVES AS PESTICIDES” (Bayer Aktiengesellschaft, priority 2017, published 2020).

Legend:
Assay type in all cases: in vivo
Myzus persicae [1] = test: Myzus persicae oral test; settings: 120 h, mixed population of green peach aphids, after 5 days, read-out: efficacy; for pest or weed control at 4 ppm: application rate 4 ppm
Protocol: Myzus persicae—Oral Test [table] To produce a suitable active compound formulation, 1 part by weight of active compound is dissolved with the stated parts by weight of solvent and made up to the desired concentration with water. 50 μl of the active compound formulation are transferred into microtitre plates and made up to a final volume of 200 μl with 150 μl of IPL41 insect medium (33%+15% sugar). Subsequently, the plates are sealed with parafilm, which a mixed population of green peach aphids (Myzus persicae) within a second microtitre plate is able to puncture and imbibe the solution. After 5 days, the efficacy in % is determined. 100% means that all the aphids have been killed; 0% means that no aphids have been killed.

Phaedon cochleariae = Phaedon cochleariae spray test; settings: foliar, 168 h, application rate 100 g/ha, larvae on Chinese cabbage leaf discs, after 7 days, read-out: efficacy
Protocol: Phaedon cochleariae—Spray Test
(§1) To produce a suitable active compound formulation, 1 part by weight of active compound is dissolved with the specified parts by weight of solvent and made up to the desired concentration with water containing an emulsifier concentration of 1000 ppm. To produce further test concentrations, the formulation is diluted with emulsifier-containing water.
Discs of Chinese cabbage leaves (Brassica pekinensis) are sprayed with an active compound formulation of the desired concentration and, after drying, populated with larvae of the mustard beetle (Phaedon cochleariae).
After 7 days, the efficacy in % is determined. 100% means that all the beetle larvae have been killed; 0% means that no beetle larvae have been killed.

Myzus persicae [2] = test: Myzus persicae spray test; settings: foliar, 120 h, application rate 100 g/ha, Chinese cabbage leaf discs infested by all stages, after 5 days, read-out: efficacy
Protocol: Myzus persicae—Spray Test [table] To produce a suitable active compound formulation, 1 part by weight of active compound is dissolved with the specified parts by weight of solvent and made up to the desired concentration with water containing an emulsifier concentration of 1000 ppm. To produce further test concentrations, the formulation is diluted with emulsifier-containing water. Discs of Chinese cabbage leaves (Brassica pekinensis) infested by all stages of the green peach aphid (Myzus persicae) are sprayed with an active compound formulation of the desired concentration. After 5 days, the efficacy in % is determined. 100% means that all the aphids have been killed; 0% means that no aphids have been killed.

Spodoptera frugiperda = Spodoptera frugiperda spray test; settings: foliar, 168 h, application rate 100 g/ha, caterpillars on maize leaf discs, after 7 days, read-out: efficacy
Protocol: Spodoptera frugiperda—Spray Test [table] To produce a suitable active compound formulation, 1 part by weight of active compound is dissolved with the specified parts by weight of solvent and made up to the desired concentration with water containing an emulsifier concentration of 1000 ppm. To produce further test concentrations, the formulation is diluted with emulsifier-containing water. Leaf discs of maize (Zea mays) are sprayed with an active compound formulation of the desired concentration and, after drying, populated with caterpillars of the fall armyworm (Spodoptera frugiperda). After 7 days, the efficacy in % is determined. 100% means that all the caterpillars have been killed; 0% means that no caterpillar has been killed.

Tetranychus urticae = Tetranychus urticae spray test, OP-resistant; settings: application rate 100 g/ha, bean leaf discs infested with all stages, after 6 days
Protocol: Tetranychus urticae—Spray Test, OP-Resistant
as §1
Discs of bean leaves (Phaseolus vulgaris) infested with all stages of the greenhouse red spider mite (Tetranychus urticae) are sprayed with an active compound formulation of the desired concentration.
After 6 days, the efficacy in % is determined. 100% means that all the spider mites have been killed; 0% means that no spider mites have been killed.

Musca domestica = Musca domestica test; settings: application rate 100 ppm; adult houseflies, sponge with sugar solution; after 2 days
Protocol: Musca domestica Test Solvent: Dimethyl Sulfoxide To produce a suitable active compound formulation, 10 mg of active compound are mixed with 0.5 ml of dimethyl sulfoxide, and the concentrate is diluted with water to the desired concentration. Vessels containing a sponge treated with sugar solution and the desired concentration of active compound formulation are populated with 10 adult houseflies (Musca domestica). After 2 days, the kill in % is determined. 100% means that all of the flies have been killed; 0% means that none of the flies have been killed.

Ctenocephalides felis = Ctenocephalides felis oral test; settings: application rate 100 ppm in citrated cattle blood; unfed adult cat fleas; after 2 days
Protocol: Ctenocephalides felis—Oral Test Solvent: Dimethyl Sulfoxide To produce a suitable active compound formulation, 10 mg of active compound are mixed with 0.5 ml of dimethyl sulfoxide. Dilution with citrated cattle blood gives the desired concentration. About 20 unfed adult cat fleas (Ctenocephalides felis) are placed into a chamber which is closed at the top and bottom with gauze. A metal cylinder whose bottom end is closed with parafilm is placed onto the chamber. The cylinder contains the blood/active compound formulation, which can be imbibed by the fleas through the parafilm membrane. After 2 days, the kill in % is determined. 100% means that all of the fleas have been killed; 0% means that none of the fleas have been killed.

Lucilia cuprina = Lucilia cuprina test; settings: application rate 100 ppm; L1 larvae on minced horsemeat; after 2 days
Protocol: Lucilia cuprina Test Solvent: Dimethyl Sulfoxide To produce a suitable active compound formulation, 10 mg of active compound are mixed with 0.5 ml of dimethyl sulfoxide, and the concentrate is diluted with water to the desired concentration. About 20 L1 larvae of the Australian sheep blowfly (Lucilia cuprina) are transferred into a test vessel containing minced horsemeat and the active compound preparation of the desired concentration. After 2 days, the kill in % is determined. 100% means that all the larvae have been killed; 0% means that no larvae have been killed.

| SMILES | pest or weed control at 4 ppm (Myzus persicae [1]) [%] | pest or weed control at 100 g/ha (Phaedon cochleariae) [%] | pest or weed control at 100 g/ha (Myzus persicae [2]) [%] | pest or weed control at 100 g/ha (Spodoptera frugiperda) [%] | also measured |
| --- | --- | --- | --- | --- | --- |
| CCS(=O)(=O)c1c(-c2nc3cc(C(F)(F)F)ncc3n2C)sc2c(C#N)csc12 [I-5, 6-(Ethylsulfonyl)-5-[3-methyl-6-(trifluoromethyl)-3H-imidazo[4,5-c]pyridin-2-yl]thieno[3,2-b]thiophene-3-carbonitrile] | 100 |  |  |  |  |
| CCS(=O)(=O)c1c(-c2nc3cc(C(F)(F)F)ncc3n2C)sc2c(-c3cnn(C)c3)csc12 [I-11, 2-[3-(Ethylsulfonyl)-6-(1-methyl-1H-pyrazol-4-yl)thieno[3,2-b]thiophen-2-yl]-3-methyl-6-(trifluoromethyl)-3H-imidazo[4,5-c]pyridine] | 90 | 83 | 90 |  |  |
| CCS(=O)(=O)c1c(-c2nc3cc(C(F)(F)F)ncc3n2C)sc2c(-c3ccccc3)csc12 [I-16, 2-[3-(Ethylsulfonyl)-6-phenylthieno[3,2-b]thiophen-2-yl]-3-methyl-6-(trifluoromethyl)-3H-imidazo[4,5-c]pyridine] | 100 |  | 90 | 100 |  |
| CCS(=O)(=O)c1c(-c2nc3cc(C(F)(F)C(F)(F)F)ncc3n2C)sc2nc(C(F)(F)F)sc12 [I-14] | 90 | 100 | 90 | 100 |  |
| CCS(=O)(=O)c1c(-c2nc3cc(C(F)(F)F)ncc3n2C)sc2cc(Cl)sc12 [I-25] | 100 |  | 90 | 100 |  |
| CCS(=O)(=O)c1c(-c2nc3cc(C(F)(F)F)ncc3n2C)sc2c1C(=O)CC2 [I-30] |  |  |  |  | efficacy (Tetranychus urticae): 90% |
| CCS(=O)(=O)c1c(-c2nc3cc(C(F)(F)F)nnc3n2C)sc2nc(C(F)(F)F)sc12 [I-9] | 100 | 100 |  | 100 |  |
| CCS(=O)(=O)c1c(-c2nc3cc(C(F)(F)F)ncc3n2C)sc2c(NC(C)=O)csc12 [I-6, N-{6-(Ethylsulfonyl)-5-[3-methyl-6-(trifluoromethyl)-3H-imidazo[4,5-c]pyridin-2-yl]thieno[3,2-b]thiophen-3-yl}acetamide] |  |  | 90 |  |  |
| CCS(=O)(=O)c1c(-c2nc3cc(C(F)(F)F)ncc3n2C)sc2nc(C(F)(F)F)oc12 [I-12] | 100 | 100 | 100 | 100 | efficacy (Tetranychus urticae): 90%; efficacy (kill in %) (Musca domestica): 85%; efficacy (kill in %) (Ctenocephalides felis): 80% |
| CCS(=O)(=O)c1c(-c2nc3cc(C(F)(F)F)ncc3n2C)sc2c(C(N)=O)csc12 [I-15, 6-(Ethylsulfonyl)-5-[3-methyl-6-(trifluoromethyl)-3H-imidazo[4,5-c]pyridin-2-yl]thieno[3,2-b]thiophene-3-carboxamide] | 100 |  | 90 |  | efficacy (Tetranychus urticae): 90% |
| CCS(=O)(=O)c1c(-c2nc3cc(C(F)(F)F)ncc3n2C)sc2c(Br)csc12 [I-8, 2-[6-Bromo-3-(ethylsulfonyl)thieno[3,2-b]thiophen-2-yl]-3-methyl-6-(trifluoromethyl)-3H-imidazo[4,5-c]pyridine] | 100 |  |  | 100 |  |
| CCS(=O)(=O)c1c(-c2nc3cc(C(F)(F)F)ncc3n2C)sc2cc(C(F)(F)F)sc12 [I-7] |  |  | 100 |  | efficacy (Tetranychus urticae): 90%; efficacy (kill in %) (Musca domestica): 80%; efficacy (kill in %) (Ctenocephalides felis): 95% |
| CCS(=O)(=O)c1c(-c2nc3cc(C(F)(F)F)ncc3n2C)sc2ccoc12 [I-2, 2-[6-(Ethylsulfonyl)thieno[3,2-b]furan-5-yl]-3-methyl-6-(trifluoromethyl)-3H-imidazo[4,5-c]pyridine] | 100 |  |  |  | efficacy (kill in %) (Lucilia cuprina): 100% |
| CCS(=O)(=O)c1c(-c2nc3cc(C(F)(F)F)ncc3n2C)sc2c1CCC2 [I-4, 2-[3-(Ethylsulfonyl)-5,6-dihydro-4H-cyclopenta[b]thiophen-2-yl]-3-methyl-6-(trifluoromethyl)-3H-imidazo[4,5-c]pyridine] | 100 |  |  |  | efficacy (kill in %) (Lucilia cuprina): 90% |
| CCS(=O)(=O)c1c(-c2nc3cc(C(F)(F)F)ncc3n2C)sc2cc(C)sc12 [I-22] | 100 |  | 90 |  |  |
| CCS(=O)(=O)c1c(-c2nc3cc(C(F)(F)F)ncc3n2C)sc2c(NC(=O)C3CC3)csc12 [I-19] |  |  |  |  | pest or weed control at 0.8 ppm (Myzus persicae [1]; application rate 0.8 ppm): 100% |
| CCS(=O)(=O)c1c(-c2nc3cc(C(F)(F)F)ncc3n2C)sc2c(-n3cc(Cl)cn3)csc12 [I-20, 2-[6-(4-Chloro-1H-pyrazol-1-yl)-3-(ethylsulfonyl)thieno[3,2-b]thiophen-2-yl]-3-methyl-6-(trifluoromethyl)-3H-imidazo[4,5-c]pyridine] | 100 | 100 |  | 100 |  |
| CCS(=O)(=O)c1c(-c2nc3cc(C(F)(F)F)nnc3n2C)sc2cc(C(F)(F)F)sc12 [I-18] | 100 | 100 | 100 | 100 | efficacy (kill in %) (Musca domestica): 80%; efficacy (kill in %) (Ctenocephalides felis): 100% |
| CCS(=O)(=O)c1c(-c2nc3cc(C(F)(F)F)ncc3n2C)sc2c(C(=O)NC)csc12 [I-24] | 100 |  | 90 |  |  |
| CCS(=O)(=O)c1c(-c2nc3cc(C(F)(F)F)ncc3n2C)sc2ccsc12 [I-1] | 100 |  |  |  | efficacy (kill in %) (Lucilia cuprina): 100% |
| CCS(=O)(=O)c1c(-c2nc3cc(C(F)(F)F)cnc3n2C)sc2nc(C(F)(F)F)sc12 [I-13] | 90 | 100 |  | 100 |  |
| CCS(=O)(=O)c1c(-c2nc3cc(C(F)(F)F)ncc3n2C)sc2cc(C(F)(F)F)sc12 [I-3, 2-[3-(Ethylsulfonyl)-5-(trifluoromethyl)thieno[3,2-b]thiophen-2-yl]-3-methyl-6-(trifluoromethyl)-3H-imidazo[4,5-c]pyridine] | 100 | 100 |  | 100 |  |
| CCS(=O)(=O)c1c(-c2nc3cc(C(F)(F)F)ncc3n2C)sc2c(-n3cnc(C(F)(F)F)c3)csc12 [I-21] | 100 | 100 | 90 | 100 |  |
| CCS(=O)(=O)c1c(-c2nc3cc(C(F)(F)F)ncc3n2C)sc2c(C3CC3)csc12 [I-23] | 100 |  |  | 100 |  |
